Assay results taken from patent publication US20230331739A1, “INDOLO HEPTAMYL OXIME ANALOG CRYSTAL AS PARP INHIBITOR AND METHOD FOR PREPARING SAME” (CHIA TAI TIANQING PHARMACEUTICAL GROUP CO., LTD., priority 2020, published 2023).

What was measured:
CYP2C19 = CYP2C19 (Homo sapiens (Human), UniProt P33261); experiment: Inhibition against cytochrome P450 isoenzymes, CYP2C19; type: in vitro ADME; details: human liver microsomes
Experimental: The inhibition of the test compound against different subtypes of the human cytochrome P450 isoenzyme was determined. The test compound, a standard inhibitor (100×final concentration) and a mixed substrate working solution were prepared; the microsomes frozen in a refrigerator at −80° C. were taken out and thawed. […]

[1] = Body weight change in the MDA-MB-436 xenograft study; type: in vivo; details: three dose groups (12.5, 25, 50 mg/kg PO QD)
Text: 3. Daily observation of animals: the animals were monitored daily for health and death, and routine examinations include observation of the effect on tumor growth and the therapy on the daily performance of the animals, such as behavioral activities, food and water intake, change in body weight, appearance, or other abnormal conditions.
1. The body weights of the animals were used as a reference index for indirectly measuring the toxicity of the drug. In this model, no other morbidity or mortality occurred during the study.

[2] = Protein binding rate in plasma (equilibrium dialysis), SD rat; type: in vitro ADME; details: 4 h dialysis
Experimental: The protein binding rates of the compound disclosed herein in plasma of human, CD-1 mice and SD rats were determined. 796 μL of blank plasma was taken from human, CD-1 mice or SD rats, and 4 μL of test compound working solution (400 μM) or warfarin working solution (400 μM) was added to achieve a final concentration of 2 μM of both the test compound and the warfarin in the plasma sample. The samples were mixed well. The final concentration of organic phase DMSO was 0.5%; 50 μL of test compound and warfarin plasma sample was pipetted into a sample receiving plate (in triplicate), and a corresponding volume of blank plasma or buffer was immediately added such that the final volume in each sample well was 100 μL. The volume ratio of plasma to dialysis buffer was 1:1. […] All samples were subjected to LC/MS analysis after protein precipitation, and the protein binding rates and the recovery rates were calculated by the following formulas: protein unbinding rate (%)=100× drug concentration passing through dialysis membrane/drug concentration not passing through dialysate; protein binding rate (%)=100−protein unbinding rate (%); recovery rate (%)=100×(drug concentration passing through dialysis membrane+drug concentration not passing through dialysate)/total drug concentration before dialysis.

Chain of CYP2C19 (P33261 whole entry): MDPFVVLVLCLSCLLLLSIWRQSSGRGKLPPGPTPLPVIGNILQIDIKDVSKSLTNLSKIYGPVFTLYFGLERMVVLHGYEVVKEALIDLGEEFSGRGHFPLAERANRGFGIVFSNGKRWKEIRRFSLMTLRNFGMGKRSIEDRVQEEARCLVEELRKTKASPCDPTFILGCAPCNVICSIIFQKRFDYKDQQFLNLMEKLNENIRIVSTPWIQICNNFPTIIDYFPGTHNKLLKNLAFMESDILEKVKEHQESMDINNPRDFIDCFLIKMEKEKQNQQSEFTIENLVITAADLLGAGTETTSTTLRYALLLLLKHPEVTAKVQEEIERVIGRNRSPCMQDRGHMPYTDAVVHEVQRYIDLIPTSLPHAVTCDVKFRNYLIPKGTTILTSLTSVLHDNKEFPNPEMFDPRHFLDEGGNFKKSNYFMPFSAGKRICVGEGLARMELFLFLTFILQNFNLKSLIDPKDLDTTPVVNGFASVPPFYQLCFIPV

SMILES: C[C@]1(c2ccc(-c3[nH]c4cc(F)cc5c4c3CONC5=O)cc2)CCCN1 [Compound 1]
- IC50 (CYP2C19): 8.33 µM
- change in body weight [1]: little change in body weight
- fraction unbound at 4 h, 2 μM [2]: 0.077
